Measurements reported in patent publication EP4813993A1, “COMPOUND, PREPARATION METHOD THEREFOR, AND USE THEREOF” (Sichuan Kelun Pharmaceutical Research Institute Co., Ltd., priority 2023, dated 2025).

Experiments:
[1] = Tissue distribution study (dorsal root ganglia) in SD rats; assay type: in vivo; settings: male, rat, oral administration 10 mg/kg
Method: Experimental Example 5: Tissue distribution study of compounds in SD rats
Experimental animals: SD rats, male, 6-8 weeks old.
(§1) Compound preparation: 5% (final preparation volume) of DMSO was added to dissolve the test compound, and then 10% (final preparation volume) of Cremophor EL and 85% Saline were sequentially added.
(§2) Experimental design: The test compounds were administered to SD rats as a single dose via oral administration (10 mg/kg; n = 3, 3 time points). Blood samples were collected at 0.5 h, 2 h, and 6 h after oral administration, followed by sacrifice of the animals. Dorsal root ganglia were collected, rinsed with ice-cold normal saline to remove residual blood, blotted dry with absorbent paper, and stored at -70 °C for analysis.
Sample test: The concentrations of the designated compound drugs in plasma and tissues were determined by the LC-MS/MS method.

incision pain model [2] = assay: Incision pain model in ICR mice, Von Frey test; assay type: in vivo; settings: Mean + SEM, n = 10; for PWT 50% value (g) Post-surgery, Preadministration / PWT 50% value (g) Pre-surgery: 50 mg/kg group; for PWT 50% value (g) Post-surgery, Preadministration: baseline before administration; for PWT 50% value (g) Pre-surgery: baseline before surgery; for PWT 50% value (g) 0.5 h / PWT 50% value (g) 2 h / PWT 50% value (g) 4 h: 50 mg/kg single dose; for PWT 50% value (g) 0.5 h: 0.5 h after administration; for PWT 50% value (g) 2 h: 2 h after administration; for PWT 50% value (g) 4 h: 4 h after administration
Method: Experimental Example 6: Pharmacodynamic effect study of compounds in incision pain model in ICR mice Experimental animals: ICR mice, male, 28-35 g.
as §1
A plantar incision pain model was established in mice via surgery before the administration and test. Mice were placed in an anesthesia induction chamber and given 3%-4% isoflurane for anesthesia induction. After the anesthesia induction, a breathing mask was applied, and the isoflurane concentration was adjusted to 1%-2% to prevent the mice from suffering pain during the surgery. Each mouse was placed in a supine position, and the surgical site was disinfected with alcohol and iodophor. Under sterile conditions, a 0.5 cm longitudinal incision was made on the left hind paw surface, 0.2 cm away from the heel, extending toward the toes. The skin and fascia were incised; the plantar muscle was separated, slightly lifted, and longitudinally incised. The skin was then sutured with 5-0 sutures and disinfected.
2. Administration and test
The Von Frey test was performed once before the surgery. On the second day after animal modeling, the test was repeated, and animals meeting the baseline requirements were selected for enrollment. The animals were randomly grouped based on the 50% PWT values, with 10 animals per group. Administration was performed under a double-blind test protocol. The 50% PWT of the animals was measured separately before administration (baseline) and at 0.5 h, 2 h, and 4 h after administration, and a single dose was administered. The model control group was given normal saline, while the compound groups were given the compounds according to the administration doses in the table below.

[3] = Pharmacokinetic study in ICR mice; assay type: in vivo; settings: mouse
Method: Experimental Example 3: Pharmacokinetic study of compounds in ICR mice
(§3) Experimental animals: ICR mice, male, 6-8 weeks old.
as §1
The injection group was given free access to food and water. The oral group was fasted overnight (> 12 h) with free access to water, and was fed 4 h after administration. Blood samples were collected from the jugular vein of ICR mice at the following time points: 5 min, 15 min, 0.5 h, 1 h, 2 h, 4 h, 8 h, and 24 h after injection administration; 15 min, 0.5 h, 1 h, 2 h, 4 h, 6 h, 8 h, and 24 h after oral administration. The collected blood samples were anticoagulated, placed in an ice bath, and then centrifuged for 5 min to separate plasma. The plasma was stored at -70 °C for analysis.
Sample test: The concentrations of the designated compound drugs in plasma were determined by the LC-MS/MS method; the main pharmacokinetic parameters were calculated using the Winnolin 8.3 non-compartmental model. Pharmacokinetic test results of some compounds of the present disclosure in ICR mice

Nav1.8 channels = target: T1, Nav1.8 channels (Homo sapiens, UniProt Q9Y5Y9); assay: Manual patch-clamp, current of stably overexpressed Nav1.8 channels (resting state voltage program); assay type: cell-based; settings: for inhibition at 0.001 µM: concentration of 1 nM, read-out: Inhibition rate %
T1 construct: expressed in transfected cells
T1 sequence (Q9Y5Y9 whole entry): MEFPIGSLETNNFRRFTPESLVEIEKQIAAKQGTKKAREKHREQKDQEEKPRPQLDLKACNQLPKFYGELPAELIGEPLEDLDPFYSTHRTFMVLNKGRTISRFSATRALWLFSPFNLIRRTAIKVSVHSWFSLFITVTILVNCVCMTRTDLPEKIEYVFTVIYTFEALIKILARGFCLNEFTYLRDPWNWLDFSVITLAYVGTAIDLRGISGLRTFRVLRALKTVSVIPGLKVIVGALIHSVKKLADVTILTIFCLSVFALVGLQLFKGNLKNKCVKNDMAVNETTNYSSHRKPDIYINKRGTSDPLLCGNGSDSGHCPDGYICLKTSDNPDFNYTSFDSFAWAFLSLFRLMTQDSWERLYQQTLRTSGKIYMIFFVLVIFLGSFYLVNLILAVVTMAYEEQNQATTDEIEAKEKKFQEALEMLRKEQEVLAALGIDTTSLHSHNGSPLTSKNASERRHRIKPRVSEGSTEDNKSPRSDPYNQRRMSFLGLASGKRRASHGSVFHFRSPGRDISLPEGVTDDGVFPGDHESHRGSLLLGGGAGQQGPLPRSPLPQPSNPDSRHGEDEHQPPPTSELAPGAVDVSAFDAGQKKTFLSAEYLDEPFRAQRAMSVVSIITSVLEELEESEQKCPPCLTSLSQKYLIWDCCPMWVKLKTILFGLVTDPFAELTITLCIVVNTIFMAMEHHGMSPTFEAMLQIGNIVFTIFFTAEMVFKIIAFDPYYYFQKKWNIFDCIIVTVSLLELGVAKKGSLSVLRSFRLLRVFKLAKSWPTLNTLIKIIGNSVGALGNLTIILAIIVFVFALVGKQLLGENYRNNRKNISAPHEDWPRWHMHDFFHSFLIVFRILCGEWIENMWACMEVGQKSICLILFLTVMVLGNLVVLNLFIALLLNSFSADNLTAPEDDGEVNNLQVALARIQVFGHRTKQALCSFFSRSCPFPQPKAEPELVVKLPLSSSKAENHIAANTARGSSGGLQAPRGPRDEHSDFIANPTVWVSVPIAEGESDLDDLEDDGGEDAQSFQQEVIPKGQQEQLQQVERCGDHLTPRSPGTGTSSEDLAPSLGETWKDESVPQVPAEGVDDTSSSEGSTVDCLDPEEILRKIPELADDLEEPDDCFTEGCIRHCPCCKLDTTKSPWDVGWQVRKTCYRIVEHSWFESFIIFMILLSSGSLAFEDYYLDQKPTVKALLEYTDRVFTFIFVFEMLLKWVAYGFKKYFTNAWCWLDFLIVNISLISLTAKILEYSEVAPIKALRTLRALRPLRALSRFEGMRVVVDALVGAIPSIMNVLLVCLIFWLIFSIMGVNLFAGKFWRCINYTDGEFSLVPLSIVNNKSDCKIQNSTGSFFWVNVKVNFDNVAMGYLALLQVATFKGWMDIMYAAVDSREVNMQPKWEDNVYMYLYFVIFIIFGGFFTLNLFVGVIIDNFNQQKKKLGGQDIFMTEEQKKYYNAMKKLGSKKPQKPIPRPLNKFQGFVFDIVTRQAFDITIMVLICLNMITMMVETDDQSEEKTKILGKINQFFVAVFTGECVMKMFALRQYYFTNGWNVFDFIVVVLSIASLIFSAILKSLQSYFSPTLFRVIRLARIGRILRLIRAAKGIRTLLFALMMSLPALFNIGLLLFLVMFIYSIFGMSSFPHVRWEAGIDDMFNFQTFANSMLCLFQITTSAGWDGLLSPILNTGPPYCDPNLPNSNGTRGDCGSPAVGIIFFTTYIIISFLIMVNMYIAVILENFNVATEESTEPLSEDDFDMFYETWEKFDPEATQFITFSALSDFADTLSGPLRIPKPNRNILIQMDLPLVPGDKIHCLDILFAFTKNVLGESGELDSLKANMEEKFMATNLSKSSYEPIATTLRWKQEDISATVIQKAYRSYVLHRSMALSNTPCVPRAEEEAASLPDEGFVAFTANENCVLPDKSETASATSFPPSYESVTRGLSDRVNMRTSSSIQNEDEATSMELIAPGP
Method in brief: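 Whole-cell manual patch clamp on cells stably overexpressing Nav1.8, held at -120 mV and stepped to 0 mV for 50 ms every 20 s (resting-state protocol). Compounds were perfused in ascending concentrations, each for 5 min or until stable; block of peak current was calculated at steady state.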

incision pain model [4] = assay: Incision pain model in ICR mice, Von Frey test; assay type: in vivo; settings: 50 mg/kg single dose, Mean + SEM, n = 10
[5] = Tissue distribution study (dorsal root ganglia) in ICR mice; assay type: in vivo; settings: male, mouse, oral administration 20 mg/kg
Method: Experimental Example 4: Tissue distribution study of compounds in ICR mice
as §3, §1
as §2, with “ICR mice” for “SD rats”, “(20” for “(10”, “0.25” for “0.5”, “12” for “6”, “ganglia (DRG)” for “ganglia”
Sample test: The concentrations of the compound drugs in dorsal root ganglia were determined by the LC-MS/MS method.

[6] = test system: acetic acid writhing model; assay: Mouse acetic acid writhing model; assay type: in vivo, ICR mice
Method: Experimental Example 11: Pharmacodynamic effect study of compounds in mouse acetic acid writhing model
Experimental animals: ICR mice, male, 20-24 g.
Compound preparation: 5% (final preparation volume) of DMSO was added to dissolve the test compound, and then 10% (final preparation volume) of Cremophor EL and 85% Saline were sequentially added; an appropriate amount of Etoricoxib was weighed, 5% (final preparation volume) of DMSO was added to dissolve the test compound, and then 5% (final preparation volume) of HS-15 and 90% Saline were sequentially added.
• 1. The mice were randomly grouped based on the body weight for model establishment, with 10 animals per group. A 0.8% (v/v) acetic acid solution was intraperitoneally injected at an injection volume of 10 mL/kg. • 2. Administration and test
Administration was performed 60 min before modeling. After the acetic acid solution was injected, the number of writhing responses in mice was observed. […] The number of writhing responses was observed and recorded during two intervals: 0-15 min and 15-30 min, with a total observation duration of 30 min. Inhibition rate = (number of writhing responses in control group - number of writhing responses in administration group)/number of writhing responses in control group × 100%. The model control group was given normal saline, the positive control group 1 was given etoricoxib at 20 mg/kg, the positive control group 2 was given VX-548 at 50 mg/kg, and the remaining groups were given the compounds of the present disclosure according to the administration doses in the table below.

[7] = male, plasma, Oral administration, 10 mg/kg
[8] = male, plasma, iv, Injection (i.v.), 2 mg/kg

COc1c([C@@H]2C[C@](C)(C(F)(F)F)SC2C(=O)Nc2ccnc([N+](=O)[O-])c2)ccc(F)c1F (stereo in doubt) [a-7-A, (2S,3S,5R)-3-(3,4-difluoro-2-methoxyphenyl)-5-methyl-N-(2-nitropyridin-4-yl)-5-(trifluoromethyl)tetrahydrothiophene-2-carboxamide]
concentration at 0.5 h ([1]; Time 0.5 h): 115 ng/g | concentration at 2 h ([1]; Time 2 h): 768 ng/g | concentration at 6 h ([1]; Time 6 h): 557 ng/g | PWT 50% value (g) Post-surgery, Preadministration (incision pain model [2]): 0.27 ± 0.13 g | PWT 50% value (g) Pre-surgery (incision pain model [2]): 1.43 ± 0.43 g | PWT 50% value (g) 0.5 h (incision pain model [2]): 0.47 ± 0.16 g | PWT 50% value (g) 2 h (incision pain model [2]): 0.72 ± 0.35 g | PWT 50% value (g) 4 h (incision pain model [2]): 0.47 ± 0.25 g | AUC(0-inf) [3, 7]: 10200 ng·h/mL | AUC(0-inf) [3, 8]: 2090 ng·h/mL | IC50 (Nav1.8 channels): 0.15 nM | PWT 50% value (g) AUC0-8h (incision pain model [4]): 3.62 ± 1.28 g·h

COc1c([C@@H]2C[C@](C)(C(F)(F)F)S[C@H]2C(=O)Nc2ccc(F)c(S(N)(=O)=O)c2)ccc(F)c1F [Compound 233-A, (2R,3S,5R)-3-(3,4-difluoro-2-methoxyphenyl)-N-(4-fluoro-3-sulfamoylphenyl)-5-methyl-5-(trifluoromethyl)tetrahydrothiophene-2-carboxamide]
PWT 50% value (g) Post-surgery, Preadministration (incision pain model [2]): 0.22 ± 0.02 g | PWT 50% value (g) Pre-surgery (incision pain model [2]): 1.54 ± 0.4 g | PWT 50% value (g) 0.5 h (incision pain model [2]): 0.42 ± 0.34 g | PWT 50% value (g) 2 h (incision pain model [2]): 0.62 ± 0.32 g | PWT 50% value (g) 4 h (incision pain model [2]): 0.41 ± 0.21 g | concentration at 0.25 h [5]: 400 ng/g | concentration at 2 h [5]: 2850 ng/g | concentration at 12 h [5]: 489 ng/g | AUC(0-inf) [3, 7]: 34100 ng·h/mL | AUC(0-inf) [3, 8]: 9490 ng·h/mL | inhibition at 0.001 µM (Nav1.8 channels): 94.1% | PWT 50% value (g) AUC0-8h (incision pain model [4]): 3.21 ± 1.35 g·h

COc1c([C@@H]2C[C@](C)(C(F)(F)F)S[C@H]2C(=O)Nc2ccn3nncc3c2)ccc(F)c1F [Compound 246-A, (2R,3S,5R)-3-(3,4-difluoro-2-methoxyphenyl)-5-methyl-N-((1,2,3)triazolo(1,5-a)pyridin-5-yl)-5-(trifluoromethyl)tetrahydrothiophene-2-carboxamide]
PWT 50% value (g) Post-surgery, Preadministration (incision pain model [2]): 0.24 ± 0.03 g | PWT 50% value (g) Pre-surgery (incision pain model [2]): 1.4 ± 0.17 g | PWT 50% value (g) 0.5 h (incision pain model [2]): 0.32 ± 0.12 g | PWT 50% value (g) 2 h (incision pain model [2]): 0.33 ± 0.16 g | PWT 50% value (g) 4 h (incision pain model [2]): 0.4 ± 0.27 g | AUC(0-inf) [3, 7]: 2580 ng·h/mL | AUC(0-inf) [3, 8]: 1400 ng·h/mL | inhibition at 0.001 µM (Nav1.8 channels): 77.8% | PWT 50% value (g) AUC0-8h (incision pain model [4]): 2.53 ± 0.82 g·h

COc1c([C@@H]2C[C@](C)(C(F)(F)F)S[C@H]2C(=O)Nc2ccc3c(c2)S(=O)(=O)NC3)ccc(F)c1F [Compound a-37-A, (2R,3S,5R)-3-(3,4-difluoro-2-methoxyphenyl)-N-(1,1-dioxide-2,3-dihydrobenzo[d]isothiazol-6-yl)-5-methyl-5-(trifluoromethyl)tetrahydrothiophene-2-carboxamide]
PWT 50% value (g) Post-surgery, Preadministration (incision pain model [2]): 0.24 ± 0.03 g | PWT 50% value (g) Pre-surgery (incision pain model [2]): 1.43 ± 0.33 g | PWT 50% value (g) 0.5 h (incision pain model [2]): 0.33 ± 0.12 g | PWT 50% value (g) 2 h (incision pain model [2]): 0.55 ± 0.18 g | PWT 50% value (g) 4 h (incision pain model [2]): 0.32 ± 0.1 g | AUC(0-inf) ([3]; in vivo, Oral administration, 10 mg/kg): 8130 ng·h/mL | AUC(0-inf) ([3]; in vivo, iv, Injection (i.v.), 2 mg/kg): 2030 ng·h/mL | PWT 50% value (g) AUC0-8h (incision pain model [4]): 2.71 ± 0.39 g·h

COc1c([C@@H]2C[C@](C)(C(F)(F)F)S[C@H]2C(=O)Nc2ccnc(N=[N+]=[N-])c2)ccc(F)c1F [a-20-A, (2R,3S,5R)-N-(2-azidopyridin-4-yl)-3-(3,4-difluoro-2-methoxyphenyl)-5-methyl-5-(trifluoromethyl)tetrahydrothiophene-2-carboxamide]
PWT 50% value (g) Post-surgery, Preadministration (incision pain model [2]): 0.29 ± 0.09 g | PWT 50% value (g) Pre-surgery (incision pain model [2]): 1.14 ± 0.21 g | PWT 50% value (g) 0.5 h (incision pain model [2]): 0.39 ± 0.14 g | PWT 50% value (g) 2 h (incision pain model [2]): 0.49 ± 0.18 g | PWT 50% value (g) 4 h (incision pain model [2]): 0.57 ± 0.22 g | concentration at 0.25 h [5]: 1040 ng/g | concentration at 2 h [5]: 5900 ng/g | concentration at 12 h [5]: 1910 ng/g | AUC(0-inf) [3, 7]: 15400 ng·h/mL | AUC(0-inf) [3, 8]: 1990 ng·h/mL | IC50 (Nav1.8 channels): 0.001 nM | PWT 50% value (g) AUC0-8h (incision pain model [4]): 3.48 ± 0.82 g·h | Number of writhing responses ([6]; ICR mice, Dose 50 mg/kg, 60 min before 0.8% acetic acid i.p., 30 min observation, Mean + SD, n = 10): 17 ± 11 | inhibition of the writhing effect compared with VX-548 ([6]; mouse acetic acid writhing model): better than VX-548

COc1c([C@@H]2C[C@](C)(C(F)(F)F)S[C@H]2C(=O)Nc2cccc(S(=O)(=O)N=[N+]=[N-])c2)ccc(F)c1F [a-65-A, 3-((2R,3S,5R)-3-(3,4-difluoro-2-methoxyphenyl)-5-methyl-5-(trifluoromethyl)tetrahydrothiophene-2-carboxamido)benzenesulfonyl azide]
PWT 50% value (g) Post-surgery, Preadministration (incision pain model [2]): 0.22 ± 0.02 g | PWT 50% value (g) Pre-surgery (incision pain model [2]): 1.13 ± 0.08 g | PWT 50% value (g) 0.5 h (incision pain model [2]): 0.38 ± 0.16 g | PWT 50% value (g) 2 h (incision pain model [2]): 0.43 ± 0.17 g | PWT 50% value (g) 4 h (incision pain model [2]): 0.51 ± 0.2 g | IC50 (Nav1.8 channels): 0.017 nM | PWT 50% value (g) AUC0-8h (incision pain model [4]): 4.87 ± 0.97 g·h
